Laboratory results: ChEMBL document CHEMBL1909046, “DrugMatrix in vitro pharmacology data”
pIC50, pKi: −log10 of the molar value.

Legend:
[1] = target: T1, Amine oxidase [flavin-containing] A (Homo sapiens, UniProt P21397); assay: DRUGMATRIX: Monoamine Oxidase MAO-A enzyme inhibition (substrate: Kynuramine); parameters: species or system BTI-TN-5B1-4; settings: bti-tn-5b1-4; Not Active = under 50% inhibition at 10 µM
T1 sequence (P21397 whole entry): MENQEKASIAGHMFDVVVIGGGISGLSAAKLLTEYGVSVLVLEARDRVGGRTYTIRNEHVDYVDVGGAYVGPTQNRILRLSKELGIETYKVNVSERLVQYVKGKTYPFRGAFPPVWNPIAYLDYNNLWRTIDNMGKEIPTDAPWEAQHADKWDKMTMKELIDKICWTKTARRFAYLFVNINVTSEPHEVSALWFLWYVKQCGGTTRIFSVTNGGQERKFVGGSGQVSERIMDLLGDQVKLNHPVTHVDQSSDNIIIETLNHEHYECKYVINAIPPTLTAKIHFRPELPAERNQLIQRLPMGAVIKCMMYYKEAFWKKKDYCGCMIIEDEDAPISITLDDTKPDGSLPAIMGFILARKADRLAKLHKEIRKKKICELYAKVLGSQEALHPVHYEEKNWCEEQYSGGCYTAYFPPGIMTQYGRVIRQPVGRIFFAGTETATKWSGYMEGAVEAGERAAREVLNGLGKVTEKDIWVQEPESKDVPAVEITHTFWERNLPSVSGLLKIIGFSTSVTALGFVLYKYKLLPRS

[2] = target: Mitogen-activated protein kinase 14 (Homo sapiens, UniProt Q16539); parameters: species or system Escherichia coli;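 further: inhibition of p38alpha enzyme activity in a biochemical kinase assay, with myelin basic protein serving as substrate; in other assays of this panel Not Active means under 50% inhibition at 10 µM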
[3] = DRUGMATRIX: Nicotinic Acetylcholine radioligand binding (ligand: [125I] Epibatidine); assay type: cell membranes, Membrane; settings: imr-32; Not Active = under 50% inhibition at 10 µM
[4] = DRUGMATRIX: Purinergic P2X radioligand binding (ligand: [3H] alpha, beta-Methylene-ATP); assay type: cell membranes, Oryctolagus cuniculus, New Zealand albino, Urinary bladder, Membrane; settings: Not Active = under 50% inhibition at 10 µM
B2 bradykinin receptor = target: T2, B2 bradykinin receptor (Homo sapiens, UniProt P30411); assay type: cell membranes, Membrane; settings: chem-1; further: in other assays of this panel Not Active means under 50% inhibition at 10 µM
T2 sequence (P30411 whole entry): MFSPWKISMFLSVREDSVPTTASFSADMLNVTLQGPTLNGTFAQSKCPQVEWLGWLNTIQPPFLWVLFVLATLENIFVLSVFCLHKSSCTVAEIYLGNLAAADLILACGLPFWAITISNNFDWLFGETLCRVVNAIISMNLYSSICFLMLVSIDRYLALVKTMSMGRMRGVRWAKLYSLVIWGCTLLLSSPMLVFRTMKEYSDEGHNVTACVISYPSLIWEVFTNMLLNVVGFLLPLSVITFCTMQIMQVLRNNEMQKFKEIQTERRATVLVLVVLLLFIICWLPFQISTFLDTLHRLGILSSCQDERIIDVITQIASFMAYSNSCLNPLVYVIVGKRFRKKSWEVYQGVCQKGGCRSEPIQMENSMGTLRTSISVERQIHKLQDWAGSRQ

Thromboxane-A synthase = target: T3, Thromboxane-A synthase (Homo sapiens, UniProt P24557); assay: biochemical; assay type: tissue-based, Platelet; settings: platelet;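 further: enzyme inhibition assay with PGH2 supplied as substrate; in other assays of this panel Not Active means under 50% inhibition at 10 µM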
T3 sequence (P24557 whole entry): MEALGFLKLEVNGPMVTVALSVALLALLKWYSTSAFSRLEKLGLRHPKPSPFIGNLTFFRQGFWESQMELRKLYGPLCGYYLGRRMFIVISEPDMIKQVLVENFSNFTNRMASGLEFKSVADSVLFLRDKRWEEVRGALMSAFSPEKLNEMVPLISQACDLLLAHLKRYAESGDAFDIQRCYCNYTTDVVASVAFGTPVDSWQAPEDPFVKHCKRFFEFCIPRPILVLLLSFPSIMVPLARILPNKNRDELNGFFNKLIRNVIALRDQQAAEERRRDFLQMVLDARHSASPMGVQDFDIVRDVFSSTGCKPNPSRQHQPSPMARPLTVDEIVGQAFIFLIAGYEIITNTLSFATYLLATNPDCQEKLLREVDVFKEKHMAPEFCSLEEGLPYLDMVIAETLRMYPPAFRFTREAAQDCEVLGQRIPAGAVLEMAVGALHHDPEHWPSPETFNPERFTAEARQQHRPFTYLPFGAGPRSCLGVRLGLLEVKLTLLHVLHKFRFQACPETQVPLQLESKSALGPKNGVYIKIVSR

[5] = target: T4, Muscarinic acetylcholine receptor M5 (Homo sapiens, UniProt P08912); assay type: cell membranes, CHO-K1, Membrane; settings: for IC50: cho-k1; for pIC50: read-out: IC50; for pKi: read-out: Ki; on all read-outs here: in other assays of this panel Not Active means under 50% inhibition at 10 µM
T4 sequence (P08912 whole entry): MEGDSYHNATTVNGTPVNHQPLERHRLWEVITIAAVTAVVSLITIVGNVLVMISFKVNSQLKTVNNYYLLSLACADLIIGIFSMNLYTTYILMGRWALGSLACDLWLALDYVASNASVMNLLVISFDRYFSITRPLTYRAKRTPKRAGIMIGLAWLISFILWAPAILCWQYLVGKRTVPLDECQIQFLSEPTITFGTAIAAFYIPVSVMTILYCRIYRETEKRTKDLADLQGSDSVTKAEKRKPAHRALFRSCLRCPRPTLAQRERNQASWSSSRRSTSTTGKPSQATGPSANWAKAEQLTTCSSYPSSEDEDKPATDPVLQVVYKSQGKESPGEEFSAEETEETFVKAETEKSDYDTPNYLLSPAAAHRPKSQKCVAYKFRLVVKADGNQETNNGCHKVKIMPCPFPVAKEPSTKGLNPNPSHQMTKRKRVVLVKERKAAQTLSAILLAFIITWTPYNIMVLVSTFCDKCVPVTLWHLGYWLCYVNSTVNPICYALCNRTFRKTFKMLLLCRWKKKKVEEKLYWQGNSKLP

Sequence of Mitogen-activated protein kinase 14 (Q16539 whole entry): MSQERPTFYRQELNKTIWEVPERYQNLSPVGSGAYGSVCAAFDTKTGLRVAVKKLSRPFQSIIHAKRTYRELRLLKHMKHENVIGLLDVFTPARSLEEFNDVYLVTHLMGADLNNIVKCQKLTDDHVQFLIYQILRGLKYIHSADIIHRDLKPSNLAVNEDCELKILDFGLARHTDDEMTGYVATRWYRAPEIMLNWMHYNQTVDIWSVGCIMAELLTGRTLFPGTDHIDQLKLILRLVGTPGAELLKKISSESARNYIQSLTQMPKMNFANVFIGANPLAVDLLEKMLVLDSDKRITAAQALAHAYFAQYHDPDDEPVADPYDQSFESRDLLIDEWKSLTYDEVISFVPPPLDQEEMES

Structure (SMILES)	IC50 [1]	IC50 [2]	IC50 [3]	Ki [3]	IC50 [4]	Ki [4]	IC50 (B2 bradykinin receptor)	IC50 (Thromboxane-A synthase)	IC50 [5]	pIC50 [5]	pKi [5]
CN1CCN(c2c(F)cc3c(=O)c(C(=O)O)cn(CCF)c3c2F)CC1 [FLEROXACIN]	Not Active	Not Active	Not Active	Not Active	Not Active	Not Active	Not Active	Not Active	Not Active		
O=c1[nH]c(=O)n([C@H]2C[C@H](O)[C@@H](CO)O2)cc1F [FLOXURIDINE]	Not Active	Not Active	Not Active	Not Active	Not Active	Not Active	Not Active	Not Active	Not Active		
COC(=O)Nc1nc2cc(C(=O)c3ccc(F)cc3)ccc2[nH]1 [FLUBENDAZOLE]	Not Active	Not Active	Not Active	Not Active	Not Active	Not Active	Not Active	Not Active	Not Active		
CC(=O)OCC(=O)[C@@]1(O)CC[C@H]2[C@@H]3CCC4=CC(=O)CC[C@]4(C)[C@@]3(F)[C@@H](O)C[C@@]21C [FLUDROCORTISONE ACETATE]	Not Active	Not Active	Not Active	Not Active	Not Active	Not Active	Not Active	Not Active	Not Active		
CCOC(=O)c1ncn2c1CN(C)C(=O)c1cc(F)ccc1-2 [FLUMAZENIL]	Not Active	Not Active	Not Active	Not Active	Not Active	Not Active	Not Active	Not Active	Not Active		
CC(=O)OCC(=O)[C@@]12OC(C)(C)O[C@@H]1C[C@H]1[C@@H]3C[C@H](F)C4=CC(=O)C=C[C@]4(C)[C@@]3(F)[C@@H](O)C[C@@]12C [FLUOCINONIDE]	Not Active	Not Active	Not Active	Not Active	Not Active	Not Active	Not Active	Not Active	Not Active		
O=C(O)P(=O)(O)O [FOSCARNET]	Not Active	Not Active	Not Active	Not Active	Not Active	Not Active	Not Active	Not Active	Not Active		
Cc1ccc(C)c(OCCCC(C)(C)C(=O)O)c1 [GEMFIBROZIL]	Not Active	Not Active	Not Active	Not Active	Not Active	Not Active	Not Active	Not Active	Not Active		
CCC1=C(C)CN(C(=O)NCCc2ccc(S(=O)(=O)NC(=O)N[C@H]3CC[C@H](C)CC3)cc2)C1=O [GLIMEPIRIDE]	Not Active	Not Active	Not Active	Not Active	Not Active	Not Active	Not Active	Not Active	Not Active		
Nc1cc(-c2ccncc2)c[nH]c1=O [INAMRINONE]	Not Active	Not Active	Not Active	Not Active	Not Active	Not Active	Not Active	Not Active	Not Active		
CCCCC1=NC2(CCCC2)C(=O)N1Cc1ccc(-c2ccccc2-c2nnn[nH]2)cc1 [IRBESARTAN]	Not Active	Not Active	Not Active	Not Active	Not Active	Not Active	Not Active	Not Active	Not Active		
CN1CCC(=C2c3ccccc3CC(=O)c3sccc32)CC1 [KETOTIFEN]	Not Active	Not Active	Not Active	Not Active	Not Active	Not Active	Not Active	Not Active		6.43	6.57
N[C@@H](Cn1ccc(=O)c(O)c1)C(=O)O [L-MIMOSINE]	Not Active	Not Active	Not Active	Not Active	Not Active	Not Active	Not Active	Not Active	Not Active		
C[N+](C)(C)C[C@H](O)CC(=O)[O-] [LEVOCARNITINE]	Not Active	Not Active	Not Active	Not Active	Not Active	Not Active	Not Active	Not Active	Not Active		
C[C@H]1COc2c(N3CCN(C)CC3)c(F)cc3c(=O)c(C(=O)O)cn1c23.C[C@H]1COc2c(N3CCN(C)CC3)c(F)cc3c(=O)c(C(=O)O)cn1c23.O [LEVOFLOXACIN]	Not Active	Not Active	Not Active	Not Active	Not Active	Not Active	Not Active	Not Active	Not Active		
CCn1cc(C(=O)O)c(=O)c2cc(F)c(N3CCNC(C)C3)c(F)c21 (stereo unspecified) [LOMEFLOXACIN]	Not Active	Not Active	Not Active	Not Active	Not Active	Not Active	Not Active	Not Active	Not Active		
CN1CCCC(CN2c3ccccc3Sc3ccccc32)C1 (stereo unspecified) [MEPAZINE]	Not Active	Not Active	Not Active	Not Active	Not Active	Not Active	Not Active	Not Active		7.40	7.55
Cc1cccc(C)c1NC(=O)C1CCCCN1C (stereo unspecified) [MEPIVACAINE]	Not Active	Not Active	Not Active	Not Active	Not Active	Not Active	Not Active	Not Active	Not Active		
CN(C)C(=N)NC(=N)N [METFORMIN]	Not Active	Not Active	Not Active	Not Active	Not Active	Not Active	Not Active	Not Active	Not Active		
CC(C)(C)NCC(O)COc1cccc2c1CC(O)C(O)C2 (stereo unspecified) [NADOLOL]	Not Active	Not Active	Not Active	Not Active	Not Active	Not Active	Not Active	Not Active	Not Active		
C[C@]12CC[C@H]3[C@@H](CCC4=CC(=O)CC[C@@H]43)[C@@H]1CC[C@@H]2O [NANDROLONE]	Not Active	Not Active	Not Active	Not Active	Not Active	Not Active	Not Active	Not Active	Not Active		
